Laboratory results published in the SangsterLogP compilation.

Experiments:
[1] = method code SF-AS, from DOI: 10.1021/jf950378u
[2] = method code SF-HPLC, from DOI: 10.1016/j.bmcl.2010.02.057, PMID: 20231095; conditions: pH 7.4
[3] = method code SF-HPLC, from DOI: 10.1021/jm100498u, PMID: 20704351; conditions: pH 7.4
[4] = not given; remark: listed apart in the source
[5] = method code SF-HPLC, from DOI: 10.1023/a:1016462801968, PMID: 3334410
[6] = not given; remark: listed apart in the source
[7] = method code SF-AS, from DOI: 10.1002/jps.2600741028, PMID: 4078715
[8] = method code SF-AS, from DOI: 10.1002/ddr.430140205; conditions: pH 7.4
[9] = method code SF, from DOI: 10.1016/0378-5173(86)90155-9; conditions: pH 7.0
[10] = method code SF, from PMID: 718082
[11] = not given; remark: listed apart in the source
[12] = not given; remark: listed apart in the source
[13] = not given; remark: listed apart in the source
[14] = not given; remark: listed apart in the source
[15] = method code SF-AS, from DOI: 10.1080/00021369.1974.10861343
[16] = method code SF-AS, from DOI: 10.1016/0021-9673(94)89049-8; conditions: pH 7.0
[17] = method code SF-AS, from DOI: 10.1111/j.2042-7158.1979.tb13606.x, PMID: 41067; conditions: pH 1.2
[18] = not given; remark: listed apart in the source
[19] = method code SF-AS, from DOI: 10.1016/0223-5234(93)90135-2; conditions: pH 12.2
[20] = method code SF-AS, from DOI: 10.1111/j.1476-5381.1975.tb07619.x, PMID: 1182339; conditions: pH 10.0
[21] = method code SF, from DOI: 10.1111/j.2042-7158.1971.tb08772.x, PMID: 4401532; conditions: pH 7.2
[22] = method code SF, from DOI: 10.1038/bjc.1982.190, PMID: 7150475; conditions: pH 7.4
[23] = method code SF-AS, from DOI: 10.1002/1521-3838(200111)20:4<291::aid-qsar291>3.0.co;2-q

Oc1cc(O)c2c(c1)O[C@H](c1ccc(O)c(O)c1)[C@@H](O)C2
logP [1]: 1.31

CC(C)OC(=O)CS(=O)(=O)c1ccc([N+](=O)[O-])cc1[N+](=O)[O-]
logP: 2.01

COC(=O)c1sc2cc(O)c(O)cc2c1Cl
logD [2]: 1.51

C[C@H](c1ccccc1)n1cncc1C(=O)OCCC1(C)N=N1
logD [3]: 3.6

CC(=O)OC[C@H]1S[C@@H](n2ccnc2[N+](=O)[O-])[C@H](OC(C)=O)[C@@H](OC(C)=O)[C@@H]1OC(C)=O
logP [4]: 0.63

Nc1nc2c(ncn2COC(CO)CO)c(=O)[nH]1
logP [5]: -1.66

CCCC(=O)OCC(COC(=O)CCC)OCn1cnc2c(=O)[nH]c(N)nc21
logP [5]: 0.83

CNC(=O)ON=C(CS(C)=O)C(C)(C)C (configuration not stated)
logP [6]: 2.75

[O-][N+](=Cc1ccccc1)c1ccccc1
logP [7]: 1.88

CSc1ccc(C(=O)c2[nH]c(=O)[nH]c2C)cc1
logD [8]: 1.55

Cc1cccc(C)c1C#[N+][O-]
logP [7]: 2.74

CSCCCOc1ccc([N+](=O)[O-])cc1
logD [9]: 3.24

CNC(=O)c1c(I)c(NC(C)=O)c(I)c(C(=O)O)c1I
logP [10]: -1.15

N#CC(C#N)=NNc1ccc(CCCl)cc1
logD ([11]; pH 7.2): 2.44

COC(=O)OCC(COC(=O)OC)OCn1cnc2c(=O)[nH]c(N)nc21
logP [5]: -0.88

CC(C)NCc1ccccc1
logP [12]: 1.83

CS(=O)(=O)CCCOc1ccc([N+](=O)[O-])cc1
logD [9]: 1.1

CC(C)(C)c1cccc(O)c1
logP [13]: 3.05

COc1ccc([C@@H]2CC(=O)c3c(O)cc(O[C@@H]4O[C@H](CO[C@@H]5O[C@@H](C)[C@H](O)[C@@H](O)[C@H]5O)[C@@H](O)[C@H](O)[C@H]4O)cc3O2)cc1O
logP [1]: 0.32

CSc1nc(NC2CC2)nc(NC(C)(C)C)n1
logP [14]: 3.38

COC(=O)C=COc1ccccc1Cl
logP [15]: 3.02

Nc1nc(Cl)nc2c1ncn2C1OC(CO)C(O)C1O (configuration not stated)
logD [16]: -0.37

COc1ccc(CCCC(=O)O)cc1
logD [17]: 2.33

CC(C)(C)OC(=O)Oc1ccccc1
logP [18]: 3.02

CCCCNCc1ccccc1
logP [12]: 2.59

NCCc1cn2ccccc2n1
logD [19]: 0.59

O=C1CCC(c2ccncc2)=NN1
logD [8]: 0.18

O=C(O)CCCCCOC(=O)Oc1ccccc1
logP [18]: 2.56

CSc1nc(N)nc(NC(C)(C)C)n1
logP [14]: 2.54

NS(=O)(=O)CCCOc1ccc([N+](=O)[O-])cc1
logD [9]: 0.97

O=c1ccc2ccc(O)c(O)c2o1
logP [1]: 0.71

COC(=O)CS(=O)(=O)c1ccccc1[N+](=O)[O-]
logP: 0.95

Cc1cc(NC(=O)NC(=N)N)ccc1Cl
logD [20]: 2.19

O=C1CCC(c2ccc(-n3ccnc3)cc2)=NN1
logD [8]: 1

COP(N)(=S)Oc1ccccc1C(=O)OC(C)C (configuration not stated)
logP [6]: 2.7

CC(N)CCc1ccccc1 (configuration not stated)
logP [12]: 2.12

CCC(C)c1ccc(O)cc1 (configuration not stated)
logP [13]: 3.32

CC(C)C(=O)OCOC(=O)c1sc2cc(O)c(O)cc2c1Cl
logD [2]: 2.91

CC(=O)Nc1c(I)c(NC(C)=O)c(I)c(C(=O)O)c1I
logP [10]: -1.05

Cc1cc(O)cc(C)c1Cl
logP [13]: 3.27

N=C(N)NC(=O)Nc1ccc(Cl)cc1
logD [20]: 1.78

NCCc1nc(-c2ccccc2)cs1
logD [19]: 2.22

CC(=O)Nc1ccc(C=O)cc1
logD [21]: 1.25

COC(=O)CSc1ccc([N+](=O)[O-])cc1[N+](=O)[O-]
logP: 2.03

CC(OC(=O)c1sc2cc(O)c(O)cc2c1Cl)OC(=O)C(C)C (configuration not stated)
logD [2]: 3.02

CN(C)CCc1ccccn1
logD [19]: 1.12

CCNCc1ccccc1
logP [12]: 1.82

CC(C)c1ccc(C=[N+]([O-])c2ccccc2)cc1
logP [7]: 3.37

O=[N+]([O-])c1nccn1[C@@H]1O[C@H](CO)[C@@H](O)[C@H](O)[C@H]1O
logP [4]: -1.4

CC(=O)Nc1ccc(C)cc1
logD [21]: 1.4

NC(=O)CCCCOC(=O)c1ccccc1
logD [9]: 1.39

N#CC(C#N)=NNc1ccc(OC(F)(F)F)cc1
logD ([11]; pH 3.0): 3.68

CC(=O)Nc1ccc(I)cc1
logD [21]: 2.46

CC1(C)[C@H](C(=O)OCc2coc(Cc3ccccc3)c2)[C@@H]1/C=C1/CCSC1=O
logP [6]: 4.31

NC(=O)c1cc(N2CC2)c([N+](=O)[O-])cc1[N+](=O)[O-]
logD [22]: 0.2

COc1ccc(CC2CNC(=O)C2)cc1OC (configuration not stated)
logD [8]: 0.58

CSc1nc(NCCC=O)nc(NC(C)(C)C)n1
logP [14]: 2.92

CNC(=O)c1c(I)c(NC(C)=O)c(I)c(OCC2OC(O)C(O)C(O)C2O)c1I (configuration not stated)
logP [10]: -1.26

CC(=O)Nc1ccc([N+](=O)[O-])cc1
logD [21]: 1.66

Cc1ccc(C=[N+]([O-])c2ccccc2)cc1
logP [7]: 2.41

CC(=O)OC[C@H]1O[C@@H](n2ccnc2[N+](=O)[O-])[C@H](OC(C)=O)[C@@H](OC(C)=O)[C@@H]1OC(C)=O
logP [4]: 0.52

O=C(O)/C=C/Oc1ccc(Cl)cc1Cl
logD ([15]; pH 3.0): 3.46

CC(=O)Nc1ccc(NN=C(C#N)C#N)cc1
logD ([11]; pH 3.0): 1.83

CCCOC(=O)c1sc2cc(O)c(O)cc2c1Cl
logD [2]: 2.45

CCCCCC1(CCO)N=N1
logD [3]: 2.55

CCOC(=O)C=COc1ccccc1Cl
logP [15]: 3.55

Cc1cccc(O)c1C
logP [13]: 2.48

N#CC(C#N)=NNc1ccc(/N=N/c2ccccc2)cc1
logD ([11]; pH 3.0): 4.25

CCOc1ccc(CC(=O)O)cc1
logD [17]: 1.95

CNCCc1ccccn1
logD [19]: 0.68

O=C(O)CCc1ccc(O)cc1
logD [17]: 1.16

O=C1CN(/N=C/c2ccc([N+](=O)[O-])o2)C(=O)N1
logD [22]: -0.19

CCC(=O)OCC(COC(=O)CC)OCn1cnc2c(=O)[nH]c(N)nc21
logP [5]: -0.14

O=C(O)[C@H]1O[C@@H](Oc2ccccc2)[C@H](O)[C@@H](O)[C@@H]1O
logP [18]: 0.73

C[C@H](c1ccccc1)n1cncc1C(=O)OCc1ccc(C2(C(F)(F)F)N=N2)cc1
logD [3]: 4.3

Cc1ccc(-c2n[nH]c(=S)o2)cc1
logP [23]: 3.44

O=C(O)/C=C/c1ccccc1O
logP [1]: 0.62

Nc1ncnc2c1ncn2[C@@H]1O[C@H](CCl)[C@@H](O)[C@H]1O
logD [16]: -0.06

Cn1cnc([N+](=O)[O-])c1S(=O)(=O)Oc1ccccc1
logD [22]: 1.08

CCOC(=O)Oc1ccccc1
logP [18]: 2.18

O=[N+]([O-])c1nccn1CC(O)CCN1CCOCC1 (configuration not stated)
logD [22]: -0.53

N#Cc1ccc(NC(=O)NC(=N)N)cc1Cl
logD [20]: 1.9

COc1ccc(CC(=O)O)cc1
logD [17]: 1.48

N=C(N)NC(=O)Nc1ccc([N+](=O)[O-])c(Cl)c1
logD [20]: 1.79

Nc1nc(F)nc2c1ncn2[C@@H]1O[C@H](CO)[C@@H](O)[C@H]1O
logD [16]: -0.8

COc1ccc(C(OC(C)=O)C(Cl)(Cl)Cl)cc1 (configuration not stated)
logP [6]: 3.72

C[C@H](c1ccccc1)n1cncc1C(=O)OCc1ccc(C(=O)c2ccccc2)cc1
logD [3]: 4.4

Nc1nc(Cl)nc2c1ncn2[C@H]1C[C@H](O)[C@@H](CO)O1
logD [16]: 0.03

COC(=O)CS(=O)c1ccc([N+](=O)[O-])cc1Cl (configuration not stated)
logP: 1.69

COC(=O)/C=C/Oc1ccccc1
logP [15]: 2.68

CSc1nc(NC(C)(C)C)nc(NC(C)(C)C)n1
logP [14]: 4.39

O=[N+]([O-])c1nccn1[C@@H]1S[C@H](CO)[C@@H](O)[C@H](O)[C@H]1O
logP [4]: -0.66
